Consider three molecules from US20250041204A1, “COMPOSITION COMPRISING LACTOBACILLUS CRISPATUS BACTERIAL LYSATES AND/OR BACTERIA FOR IMPROVING SKIN CONDITION” (BIOTIX PTE LTD, priority 2021, published 2025).

Series [1] has as its system primary adult keratinocytes (NHEK). Kind of series: In vitro irritation model (SDS, MTT survival). The format is cell-based. The conditions noted are these: for protection of keratinocytes from SDS induced cell damage: in vitro irritant test, comparison of active principles. Here is the method:
Next, the functional effects of L. Crispatus in keratinocytes was investigated using an in vitro irritation model using primary adult keratinocytes (NHEK).
Primary keratinocytes from passage 2 to 3 were cultured in 96 well plates at a seed concentration of 7,000 cells/well and cultured in complete keratinocyte medium. […] After 2 hours pre incubation, cells were treated with SDS. 2 hours later MTT was added to the culture and incubated for further 2 hours for a total incubation time of 6 hours. After incubation, the MTT assay was developed according to manufacturing instruction and O.D was measured in a 96 well plate reader to determine the survival rate of the keratinocytes.

Series [2] has as its system skin of healthy volunteers. Kind of series: Skin irritant test in healthy volunteers (occlusive plaster on forearm). The format is in vivo, human. The conditions noted are these: SDS 4% in PBS alone, 24 hours occlusion. As for the experimental part:
The same amount of each solution was applied to a plaster with a dimension of 1 cm^2. The plasters containing the solutions were then applied on the forearm of healthy donors in occlusion to increase penetration of the solution into the skin. 24 hours after application, the plasters were removed, pictures were recorded and irritation was evaluated by blinded dermatologists.

`CC(C)(CO)[C@@H](O)C(=O)NCCCO` [Panthenol]: in series [1], the “protection of keratinocytes from SDS induced cell damage” value is “not any other active principle protected”.
In series [1] (SDS alone, 6 to 8 hours incubation, MTT), `CCCCCCCCCCCCOS(=O)(=O)[O-].[Na+]` [SDS] returned a survival rate of 0%. Further, in series [2], the “skin inflammation (erythema and immune cell infiltration)” value is “induced skin inflammation in all the individuals”.
Turning to Ceramides, in series [1], the “protection of keratinocytes from SDS induced cell damage” value is “not any other active principle protected”.
